Assay results as given in US20100087649A1, “QUINOLINONE DERIVATIVES” (priority 2006, published 2010).

Experiments:
[1] = tested on: MT4 CMV-EGFP cells; test: Cytotoxicity in mock-infected MT4 CMV-EGFP cells; format: cell-based, human; details: fluorescence reduced by 50%
Excerpt: Analogously, MT4 cells are engineered with GFP and the constitutional cytomegalovirus (CMV) promotor. This cell line is designated MT4 CMV-EGFP, and can be used for the in vitro evaluation of cytotoxicity of investigational compounds. In this cell line, GFP levels are comparably to those of infected MT4 LTR-EGFP cells. Cytotoxic investigational compounds reduce GFP levels of mock-infected MT4 CMV-EGFP cells.
(§1) Effective concentration values such as 50% effective concentration (EC50) can be determined and are usually expressed in μM. An EC50 value is defined as the concentration of test compound that reduces the fluorescence of HIV-infected cells by 50%. The 50% cytotoxic concentration (CC50 in μM) is defined as the concentration of test compound that reduces fluorescence of the mock-infected cells by 50%. The ratio of CC50 to EC50 is defined as the selectivity index (SI) and is an indication of the selectivity of the anti-HIV activity of the inhibitor. The ultimate monitoring of HIV-1 infection and cytotoxicity is done using a scanning microscope. Image analysis allows very sensitive detection of viral infection. Measurements are done before cell necrosis, which usually takes place about five days after infection, in particular measurements are performed three days after infection.

[2] = tested on: wild-type HIV-IIIB strain; test: Antiviral analysis EGFP: anti-HIV activity in MT4 LTR-EGFP cells; format: cell-based, HIV-1; details: fluorescence of HIV-infected cells reduced by 50%, three days after infection
Experimental: The compounds of the present invention were tested for anti-viral activity in a cellular assay, which was performed according to the following procedure.
The human T-cell line MT4 is engineered with Green Fluorescent Protein (GFP) and an HIV-specific promoter, HIV-1 long terminal repeat (LTR). This cell line is designated MT4 LTR-EGFP, and can be used for the in vitro evaluation of anti-HIV activity of investigational compounds. In HIV-1 infected cells, the Tat protein is produced which upregulates the LTR promotor and finally leads to stimulation of the GFP reporter production, allowing measuring ongoing HIV-infection fluorometrically.
as §1
The following Table 5 lists EC50 values, expressed in micromole/liter, against wild-type HIV-IIIB strain, for a selected number of compounds of the invention.

SMILES	CC50 [1]	EC50 [2]
CNc1c(C#N)c(=O)n(-c2ccc([N+](=O)[O-])cc2)c2ncccc12 [compound 128]	> 32 µM	13.9 µM
N#Cc1cc2ccc(-c3cncnc3)cc2n(-c2ccc([N+](=O)[O-])cc2)c1=O [compound 31]	> 100 µM	7.9 µM
N#Cc1cc2ccc(-c3cccc(CN)c3)cc2n(-c2ccc([N+](=O)[O-])cc2)c1=O [compound 30]	24.7 µM	0.63 µM
N#Cc1cc2ccc(-c3ccccn3)cc2n(-c2ccc([N+](=O)[O-])cc2)c1=O [compound 82]	> 100 µM	0.54 µM
COc1cc2c(N)c(C#N)c(=O)n(-c3ccc([N+](=O)[O-])cc3)c2cc1OC [compound 109]	> 100 µM	13.5 µM
N#Cc1cc2ccc(OCCCCN)cc2n(-c2ccc([N+](=O)[O-])cc2)c1=O [compound 60]	> 32 µM	3.76 µM
N#Cc1cc2ccc(NCc3cccnc3)cc2n(-c2ccc([N+](=O)[O-])cc2)c1=O [compound 23]	> 32 µM	> 32 µM
N#Cc1cc2ccc(OCCN3CCOCC3)cc2n(-c2ccc([N+](=O)[O-])cc2)c1=O [compound 55]	> 32 µM	13.5 µM
N#Cc1c(N)c2cc(F)c(Cl)cc2n(-c2ccc([N+](=O)[O-])cc2)c1=O [compound 108]	> 100 µM	0.9 µM
COc1ccc2c(N)c(C#N)c(=O)n(-c3ccc([N+](=O)[O-])cc3)c2c1 [compound 116]	> 100 µM	0.78 µM
N#Cc1cc2ccccc2n(-c2ccc(Cl)nc2)c1=O [compound 4]	> 32 µM	> 32 µM
N#Cc1cc2cc3c(cc2n(-c2ccc(Cl)nc2)c1=O)OCO3 [compound 97]	> 32 µM	> 32 µM
N#Cc1cc2ccc(-c3cc[nH]c3)cc2n(-c2ccc([N+](=O)[O-])cc2)c1=O [compound 44]	> 100 µM	0.19 µM
CN(C)CCCOc1ccc2cc(C#N)c(=O)n(-c3ccc([N+](=O)[O-])cc3)c2c1 [compound 64]	70.6 µM	0.47 µM
N#Cc1c(N)c2cc3c(cc2n(-c2ccc(Cl)nc2)c1=O)OCO3 [compound 117]	> 32 µM	> 32 µM
CNCCCNc1ccc2cc(C#N)c(=O)n(-c3ccc([N+](=O)[O-])cc3)c2c1 [compound 22]	88.7 µM	0.36 µM
Cc1ccc(-n2c(=O)c(C#N)cc3ccccc32)cn1 [compound 5]	> 32 µM	> 32 µM
CN(C)Cc1cccc(-c2ccc3cc(C#N)c(=O)n(-c4ccc([N+](=O)[O-])cc4)c3c2)c1 [compound 45]	17.1 µM	0.14 µM
Cc1ccc(-n2c(=O)c(C#N)c(N)c3ccc(-c4cc[nH]n4)cc32)cc1C#N [compound 124]	> 100 µM	83.9 µM
N#Cc1cc2ccc(-c3cccnc3)cc2n(-c2ccc([N+](=O)[O-])cc2)c1=O [compound 33]	> 100 µM	0.83 µM
N#Cc1cc2ccc(OCCN3CCCC3)cc2n(-c2ccc([N+](=O)[O-])cc2)c1=O [compound 52]	> 32 µM	2.45 µM
N#Cc1c(N)c2ccccc2n(-c2ccc(Cl)nc2)c1=O [compound 104]	> 32 µM	19.5 µM
CCC(CC)NCCCOc1ccc2cc(C#N)c(=O)n(-c3ccc([N+](=O)[O-])cc3)c2c1 [compound 68]	51.6 µM	0.73 µM
CC(=O)NCc1cccc(-c2ccc3cc(C#N)c(=O)n(-c4ccc(C)c(C#N)c4)c3c2)c1 [compound 151]	> 100 µM	2.22 µM
N#Cc1c(NCc2ccccn2)c2ccccc2n(-c2ccc([N+](=O)[O-])cc2)c1=O [compound 131]	> 100 µM	15.9 µM
N#Cc1cc2ccc(-c3ncco3)cc2n(-c2ccc([N+](=O)[O-])cc2)c1=O [compound 79]		0.12 µM
Cc1ccc(-n2c(=O)c(C#N)cc3ccc(-c4cscn4)cc32)cc1C#N [compound 160]		0.33 µM
